Source: patent US9334285B2, “Aldosterone synthase inhibitors” (Boehringer Ingelheim International GmbH, priority 2014, dated 2016)
Like-named read-outs stand apart in the source and are kept apart here.

Experiments:
CYP19A1 = target: T1, CYP19A1 (Homo sapiens, UniProt P11511); test: Inhibition of CYP19A1 (Kragie et al.); assay type: biochemical
T1 sequence (P11511 1-503): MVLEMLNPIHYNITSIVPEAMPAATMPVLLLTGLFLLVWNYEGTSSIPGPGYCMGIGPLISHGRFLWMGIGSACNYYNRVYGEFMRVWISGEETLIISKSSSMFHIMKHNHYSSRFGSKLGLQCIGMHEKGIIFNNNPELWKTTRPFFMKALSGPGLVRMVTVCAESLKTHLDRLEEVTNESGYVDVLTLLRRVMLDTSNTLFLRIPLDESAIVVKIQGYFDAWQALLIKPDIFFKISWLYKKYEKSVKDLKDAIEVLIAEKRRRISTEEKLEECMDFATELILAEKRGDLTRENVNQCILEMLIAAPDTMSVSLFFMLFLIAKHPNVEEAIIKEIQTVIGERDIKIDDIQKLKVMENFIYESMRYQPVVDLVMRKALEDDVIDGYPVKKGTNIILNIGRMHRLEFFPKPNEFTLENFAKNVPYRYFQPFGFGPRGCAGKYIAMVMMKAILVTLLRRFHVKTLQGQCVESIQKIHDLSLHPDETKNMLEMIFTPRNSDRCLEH

[1] = target: cortisol synthase (CYP11B1) (Macaca fascicularis, UniProt A0A2K5ULY1); test: Inhibition of cortisol synthesis, cynomolgus adrenal mitochondria, 11-deoxycortisol as substrate; assay type: biochemical, cynomolgus monkey; settings: 150 units of CYP11B1, 11-deoxycortisol as substrate
Method: The aldosterone synthase and cortisol synthase inhibition assays employ cynomolgus adrenal gland mitochondria as the source of aldosterone synthase (CYP11B2) and cortisol synthase (CYP11B1). Mitochondria are prepared from frozen cynomolgus monkey adrenal glands according to Method A described in by J. D. McGarry et al. (Biochem. J., 1983, 214, 21-28), with a final resuspension in the AT buffer described in R. Yamaguchi et al. (Cell Death and Differentiation, 2007, 14, 616-624), frozen as aliquots in liquid nitrogen and stored at −80° C. until use. One unit of CYP11B2 and CYP11B1 activity in these preparations is defined as the amount of enzyme that generates 1 pmol of product in one hour under the conditions described.
Assays are performed as for aldosterone synthase except for the use of 150 units of CYP11B1, 11-deoxycortisol as substrate and cortisol measured as product.

rhCYP17A1 = target: T2, rhCYP17A1 (Homo sapiens, UniProt P05093); test: Inhibition of CYP17A1, progesterone to 17-α-hydroxyprogesterone, mass spectrometry; assay type: biochemical
T2 construct: purchased Cypex
T2 sequence (P05093 1-508): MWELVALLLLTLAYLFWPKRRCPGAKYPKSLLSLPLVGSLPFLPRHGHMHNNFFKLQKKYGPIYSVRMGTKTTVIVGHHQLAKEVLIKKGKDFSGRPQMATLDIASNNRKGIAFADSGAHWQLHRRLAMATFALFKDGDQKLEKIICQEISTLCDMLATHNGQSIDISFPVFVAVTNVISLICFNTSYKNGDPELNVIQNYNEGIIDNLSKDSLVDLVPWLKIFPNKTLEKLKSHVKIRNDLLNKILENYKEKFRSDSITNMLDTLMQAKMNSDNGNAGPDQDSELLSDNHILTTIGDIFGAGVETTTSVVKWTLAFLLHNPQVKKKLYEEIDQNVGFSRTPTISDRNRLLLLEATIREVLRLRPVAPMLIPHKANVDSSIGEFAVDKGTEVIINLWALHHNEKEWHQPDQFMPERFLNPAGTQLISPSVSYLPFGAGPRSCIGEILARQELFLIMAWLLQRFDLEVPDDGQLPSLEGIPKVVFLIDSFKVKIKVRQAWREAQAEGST
Method: Compounds of the invention may also be evaluated for inhibition of CYP17A1 via the following assay:
Reactions are started by the addition of NADPH to 1 mM and allowed to proceed for 15 minutes at 37° C. Reactions are terminated by the addition of 40 μL of MeCN containing an internal standard for mass spectrometry. The plates are centrifuged at 3000 rpm for 5 min and the reaction product 17-α-hydroxyprogesterone is quantified by mass spectrometry. To determine the assay blank value (0% activity), NADPH is omitted from some reactions.
(§1) Dose dependent inhibition is quantified by the inclusion of compound at various concentrations. Maximum activity (100%) is defined by reactions containing NADPH, but without compound.

[2] = target: T3, aldosterone synthase (CYP11B2) (Macaca fascicularis, UniProt A0A2K5UPL9); test: Inhibition of aldosterone synthase, cynomolgus adrenal mitochondria, aldosterone quantified by mass spectrometry; assay type: biochemical, cynomolgus monkey; settings: 2 μM corticosterone, 90 minutes at 37° C.
T3 construct: employ cynomolgus adrenal gland mitochondria as the source of aldosterone synthase (CYP11B2); from tissue; host or cells: cynomolgus monkey adrenal gland mitochondria
T3 sequence (A0A2K5UPL9 1-503): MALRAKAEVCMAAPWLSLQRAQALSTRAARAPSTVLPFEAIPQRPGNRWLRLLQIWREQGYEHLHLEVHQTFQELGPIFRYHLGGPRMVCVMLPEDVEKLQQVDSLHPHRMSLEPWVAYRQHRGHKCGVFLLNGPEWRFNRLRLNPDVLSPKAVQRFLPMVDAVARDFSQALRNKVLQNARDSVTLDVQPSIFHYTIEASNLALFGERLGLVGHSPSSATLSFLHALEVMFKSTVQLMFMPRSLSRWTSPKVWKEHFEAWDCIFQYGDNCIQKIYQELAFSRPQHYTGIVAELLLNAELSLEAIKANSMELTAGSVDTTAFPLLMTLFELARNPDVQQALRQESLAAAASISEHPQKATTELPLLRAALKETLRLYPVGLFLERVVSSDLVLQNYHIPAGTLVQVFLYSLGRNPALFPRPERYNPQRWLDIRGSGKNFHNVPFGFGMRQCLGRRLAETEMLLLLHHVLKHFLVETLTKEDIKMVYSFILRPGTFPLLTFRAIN
Method: The aldosterone synthase and cortisol synthase inhibition assays employ cynomolgus adrenal gland mitochondria as the source of aldosterone synthase (CYP11B2) and cortisol synthase (CYP11B1). […] One unit of CYP11B2 and CYP11B1 activity in these preparations is defined as the amount of enzyme that generates 1 pmol of product in one hour under the conditions described.
The compounds of the invention may be evaluated for aldosterone synthase inhibition by the following assay:
Assays are performed in 96-well format in a final volume of 60 microL/well, containing 100 mM potassium phosphate, pH 7.4, 1% (v/v) DMSO, and additionally, 2 μM of corticosterone and 50 units of CYP11B2 activity. Reactions are started by the addition of NADPH to 1 mM and allowed to proceed for 90 minutes at 37° C. Reactions are terminated by the addition of 60 μL of MeCN containing an internal standard for mass spectrometry. One hundred microliters are then transferred to a glass filter plate and centrifuged at 570×g for 5 minutes and the filtrate is collected. Reaction product aldosterone is quantified by mass spectrometry. To determine the assay blank value (0% activity), NADPH is omitted from some reactions.
as §1

[3] = Cortisol Inhibition IC50, cynomolgus adrenal mitochondria
[4] = cynomolgus adrenal mitochondria, read-out: Cortisol Inhibition IC50
[5] = rhCYP17A1, 150 nM progesterone, 15 minutes at 37° C., read-out: CYP17A1 IC50

| SMILES | IC50 [1, 4] [µM] | IC50 (rhCYP17A1; [5]) [µM] | IC50 (CYP19A1) [µM] | IC50 [1, 3] [µM] | IC50 (rhCYP17A1) [µM] | IC50 [2] [µM] | IC50 (CYP19A1; read-out: CYP19A1 IC50) [µM] | IC50 (rhCYP17A1; read-out: CYP17A1 IC50, rhCYP17A1, 150 nM progesterone, 15 minutes at 37° C.) [µM] |
| --- | --- | --- | --- | --- | --- | --- | --- | --- |
| N#Cc1ccc(-n2cnc3c2C(=O)OC(CO)C3)cc1Cl (single isomer, unassigned) [Compound 33A, 2-chloro-4-[6-(hydroxymethyl)-4-oxo-3H,4H,6H,7H-pyrano[3,4-d]imidazol-3-yl]benzonitrile] | – | – | > 20 | 45 | > 20 | 0.089 | – | – |
| C[C@@]1(CO)Cc2ncn(-c3ccc(C#N)c(Cl)c3)c2C(=O)O1 (single isomer, unassigned) [Compound 29B] | – | > 20 | – | 23 | – | 0.048 | > 20 | – |
| N#Cc1ccc(-n2cnc3c2C(=O)OC(CO)C3)cc1Cl (single isomer, unassigned) [Compound 33B, 2-chloro-4-[6-(hydroxymethyl)-4-oxo-3H,4H,6H,7H-pyrano[3,4-d]imidazol-3-yl]benzonitrile] | – | – | – | 14 | – | 0.027 | > 20 | > 20 |
| Cc1cc(-n2cnc3c2C(=O)OC(C)(CO)C3)ccc1C#N (single isomer, unassigned) [Compound 39B, 4-[6-(hydroxymethyl)-6-methyl-4-oxo-3H,4H,6H,7H-pyrano[3,4-d]imidazol-3-yl]-2-methylbenzonitrile] | – | > 20 | – | 8.6 | – | 0.013 | > 20 | – |
| CC1(C=O)Cc2ncn(-c3ccc(C#N)c(Cl)c3)c2C(=O)O1 (centres unmarked) [Compound 43, 2-Chloro-4-(6-formyl-6-methyl-4-oxo-6,7-dihydro-4H-pyrano[3,4-d]imidazol-3-yl)-benzonitrile] | – | > 20 | – | > 30 | – | 0.54 | > 20 | – |
| CC1(C(=O)O)Cc2ncn(-c3ccc(C#N)c(Cl)c3)c2C(=O)O1 (centres unmarked) [Compound 44, 3-(3-Chloro-4-cyano-phenyl)-6-methyl-4-oxo-3,4,6,7-tetrahydro-pyrano[3,4-d]imidazole-6-carboxylic acid] | – | > 20 | – | > 30 | – | 0.67 | > 20 | – |
| CC1(C)Cc2ncn(-c3ccc(C#N)c(F)c3)c2C(=O)O1 [Compound 10, 4-{6,6-dimethyl-4-oxo-3H,4H,6H,7H-pyrano[3,4-d]imidazol-3-yl}-2-fluorobenzonitrile] | – | > 20 | – | 4.2 | – | 0.043 | > 20 | – |
| C[C@]1(CO)Cc2ncn(-c3ccc(C#N)c(Cl)c3)c2C(=O)O1 (single isomer, unassigned) [Compound 29A] | – | > 20 | – | 4.7 | – | 0.016 | > 20 | – |

Further lines, with some results ahead:

| IC50 [1, 4] [µM] | IC50 (rhCYP17A1; [5]) [µM] | SMILES | IC50 (CYP19A1) [µM] | IC50 [1, 3] [µM] | IC50 (rhCYP17A1) [µM] | IC50 [2] [µM] | IC50 (CYP19A1; read-out: CYP19A1 IC50) [µM] | IC50 (rhCYP17A1; read-out: CYP17A1 IC50, rhCYP17A1, 150 nM progesterone, 15 minutes at 37° C.) [µM] |
| --- | --- | --- | --- | --- | --- | --- | --- | --- |
| 9 | > 20 | CC1(CO)Cc2ncn(-c3ccc(Cl)c(Cl)c3)c2C(=O)O1 (single isomer, unassigned) [Compound 30A, 3-(3,4-dichlorophenyl)-6-(hydroxymethyl)-6-methyl-3H,4H,6H,7H-pyrano[3,4-d]imidazol-4-one] | – | – | – | 0.028 | > 20 | – |
| 24 | 15 | CC1(CO)Cc2ncn(-c3cccc(Cl)c3F)c2C(=O)O1 (single isomer, unassigned) [Compound 35A, 3-(3-chloro-2-fluorophenyl)-6-(hydroxymethyl)-6-methyl-3H,4H,6H,7H-pyrano[3,4-d]imidazol-4-one] | – | – | – | 0.07 | > 20 | – |
| 0.59 | > 20 | Cc1cc(-n2cnc3c2C(=O)OC(C)(C)C3)ccc1C#N [Compound 11, 4-{6,6-dimethyl-4-oxo-3H,4H,6H,7H-pyrano[3,4-d]imidazol-3-yl}-2-methylbenzonitrile] | – | – | – | 0.0049 | > 20 | – |
| 26 | > 20 | CC1Cc2ncn(-c3ccc(C#N)cc3)c2C(=O)O1 (single isomer, unassigned) [Compound 16A, 4[6-methyl-4-oxo-3H,4H,6H,7H-pyrano[3,4-d]imidazol-3-yl]benzonitrile] | – | – | – | 0.1 | > 20 | – |
| 19 | > 20 | CC1(CO)Cc2ncn(-c3cccc(F)c3Cl)c2C(=O)O1 (single isomer, unassigned) [Compound 34B, 3-(2-chloro-3-fluorophenyl)-6-(hydroxymethyl)-6-methyl-3H,4H,6H,7H-pyrano[3,4-d]imidazol-4-one] | – | – | – | 0.12 | > 20 | – |
| 3.4 | > 20 | CC1(C)Cc2ncn(-c3ccc(F)c(F)c3)c2C(=O)O1 [Compound 2, 3-(3,4-difluorophenyl)-6,6-dimethyl-3H,4H,6H,7H-pyrano[3,4-d]imidazol-4-one] | – | – | – | 0.091 | > 20 | – |
| 7.1 | > 20 | CC1(C)Cc2ncn(-c3ccc(C#N)cc3F)c2C(=O)O1 [Compound 19, 4-{6,6-dimethyl-4-oxo-3H,4H,6H,7H-pyrano[3,4-d]imidazol-3-yl}-3-fluorobenzonitrile] | – | – | – | 0.046 | > 20 | – |
| > 30 | – | CN1C(=O)CCc2cc(-n3cnc4c3C(=O)OC(C)(CO)C4)ccc21 (single isomer, unassigned) [Compound 40B, 6-[6-(hydroxymethyl)-6-methyl-4-oxo-3H,4H,6H,7H-pyrano[3,4-d]imidazol-3-yl]-1-methyl-1,2,3,4-tetrahydroquinolin-2-one] | – | – | – | 0.46 | – | – |
